Laboratory results published in patent US8076342B2, “Malonate salt of 4-((1R,3S)-6-chloro-3-phenylindan-1-yl)-1,2,2-trimethylpiperazine and uses of same” (priority 2003, dated 2011).
Entries after “also recorded” stand apart in the source; their conditions may differ.

Tests used:
[1] = Stability of the salts (heat/humidity, heat, light; HPLC impurity peak area); assay type: physicochemical
Experimental: The stability of the salts was investigated under the following circumstances:
Heat, 60° C./80% RH: Samples were stored at 60° C. with 80% RH for one week. Then they were dissolved and analysed by HPLC.
Heat, 90° C.: Samples (˜10 mg) were stored at 90° C. in closed containers containing 1 droplet of water. Then they were dissolved and analysed by HPLC.
Light: Samples were placed in the light cabinet at 250 w/m^2 for 24 hours. Then they were dissolved and analysed by HPLC.
The area of peaks in the chromatograms besides the peaks corresponding to the substance or the acid was summarized.

[2] = Hygroscopicity by Dynamic Vapour sorption (DVS); assay type: physicochemical
Source text: The hygroscopicity of the fumarate salt, the succinate salt (the alpha form) and the malonate salt was investigated by Dynamic Vapour sorption (DVS). […] The malonate absorbs gradually up to 1% of water when the relative humidity is raised to 95%, but with no hysteresis.

[3] = test system: dopamine D1 receptor; settings: cited from earlier work
[4] = molecular target: dopamine D2 receptor (Homo sapiens, UniProt P14416); settings: cited from earlier work
dopamine D2 receptor, sequence (P14416 whole entry, species assumed): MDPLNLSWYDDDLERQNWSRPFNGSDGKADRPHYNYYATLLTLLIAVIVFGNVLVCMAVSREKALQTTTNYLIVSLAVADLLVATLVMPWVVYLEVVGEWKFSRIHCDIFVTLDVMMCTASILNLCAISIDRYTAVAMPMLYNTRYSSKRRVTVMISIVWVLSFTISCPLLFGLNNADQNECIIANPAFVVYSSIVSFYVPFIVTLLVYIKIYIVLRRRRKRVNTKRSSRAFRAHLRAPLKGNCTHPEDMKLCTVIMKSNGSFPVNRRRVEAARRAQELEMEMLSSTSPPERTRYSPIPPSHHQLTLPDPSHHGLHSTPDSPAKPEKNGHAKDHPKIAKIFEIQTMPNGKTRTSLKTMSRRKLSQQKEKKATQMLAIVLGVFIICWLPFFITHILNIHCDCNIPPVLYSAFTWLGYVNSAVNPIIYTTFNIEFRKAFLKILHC

[5] = test system: 5-HT2 receptor; settings: cited from earlier work
[6] = test system: rats; settings: cited from earlier work
[7] = test system: D1 and D2; settings: cited from earlier work
[8] = 90° C., closed containers containing 1 droplet of water

Sum of impurity peak area % ([1]; 60° C./80% RH, one week)	Stability compared with the fumarate salt ([1]; 60° C./80% relative humidity (RH))	Stability compared with the fumarate salt ([1]; 90° C.)	Sum of impurity peak area % [1, 8]	Sum of impurity peak area % ([1]; Light, 250 w/m^2 for 24 hours)	Stability compared with the fumarate salt ([1]; exposed to light)	Hygroscopicity ([2]; DVS)	Water absorbed ([2]; relative humidity raised to 95%)	Stability compared with the fumarate salt and the hydrogen malonate salt [1]	Degradation ([1]; all stability conditions)	Structure (SMILES)	Hysteresis of water sorption ([2]; DVS)	D1 antagonist potency [3]	D2 antagonist potency [4]	5-HT2 antagonist potency [5]	Induction of catalepsy [6]	D1 versus D2 antagonist potency in vivo [7]
0%	more stable	less stable	6.19%	0.06%	similar	non-hygroscopic	up to 1%	–	–	CN1CCN([C@@H]2C[C@@H](c3ccccc3)c3ccc(Cl)cc32)CC1(C)C.O=C(O)CC(=O)O (relative stereo) [Malonate 1:1, trans-4-((1R,3S)-6-chloro-3-phenylindan-1-yl)-1,2,2-trimethylpiperazinium (I) hydrogen malonate]	no hysteresis; also recorded: no hysterhesis	–	–	–	–	–
0%	–	–	0%	0%	–	non-hygroscopic	–	more stable	does not show any degradation at all	CN1CCN([C@@H]2C[C@@H](c3ccccc3)c3ccc(Cl)cc32)CC1(C)C.O=C(O)CCC(=O)O (relative stereo) [Succinate 1:1 alpha, trans-4-((1R,3S)-6-chloro-3-phenylindan-1-yl)-1,2,2-trimethyl-piperazinium (I) hydrogen succinate]	–	–	–	–	–	–
0.07%	–	–	0.09%	0.06%	–	non-hygroscopic	–	–	–	CN1CCN([C@@H]2C[C@@H](c3ccccc3)c3ccc(Cl)cc32)CC1(C)C.O=C(O)/C=C/C(=O)O (relative stereo) [Fumarate, trans-4-((1R,3S)-6-chloro-3-phenylindan-1-yl)-1,2,2-trimethylpiperazinium (I) hydrogen fumarate]	–	potent	potent	potent	does not induce catalepsy	equipotent
